# In PubChem BioAssay (NCI):
#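 Where inhibition never reached the appropriate level, the endpoint shown equals the highest concentration tested. Otherwise, values were interpolated linearly from a five-concentration, 48-hour dose response in 96-well plates. GI50: concentration for 50% inhibition of growth. At the TGI there is no net growth.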
# Tests used:
# Assay in all cases: NCI-60 cell line screen, 48 h
# [1] = tested on: SW-620 colon
# [2] = tested on: U251 CNS
# [3] = tested on: A549 NSCLC
# [4] = tested on: OVCAR-3 ovarian
# [5] = tested on: HS 578T breast
# [6] = tested on: NCI-H460 lung
# [7] = tested on: TK-10 renal
# [8] = tested on: CAKI-1 renal
# [9] = tested on: NCI-H522 lung
# [10] = tested on: RPMI-8226 leukemia
# [11] = tested on: MALME-3M melanoma
# [12] = tested on: A498 renal
# [13] = tested on: 786-0 renal
# [14] = tested on: HOP-92 NSCLC
# [15] = tested on: OVCAR-5 ovarian
# [16] = tested on: HCC-2998 colon
# [17] = tested on: BT-549 breast
# [18] = tested on: HCT-116 colon
# [19] = tested on: UACC-62 melanoma
# [20] = tested on: K-562 leukemia
# [21] = tested on: NCI-H226 lung
# [22] = tested on: MDA-MB-435
# [23] = tested on: OVCAR-4 ovarian
# [24] = tested on: HT29 colon
# [25] = tested on: SR leukemia
# [26] = tested on: SF-295 CNS
# [27] = tested on: RXF 393 renal
# [28] = tested on: ACHN renal
# [29] = tested on: SK-MEL-28 melanoma
smiles,measurement,setting,value
C=C1CCC2C3(C)COC(c4c(F)cccc4F)OC3CCC2(C)C1C/C=C1/C(=O)OCC1O (stereo not drawn),GI50,[1],1.8 µM
same,TGI,[1],3.63 µM
same,GI50,[2],1.81 µM
same,TGI,[2],3.45 µM
same,GI50,[3],4.05 µM
same,TGI,[3],17.2 µM
same,GI50,[4],2.02 µM
same,TGI,[4],4.12 µM
same,GI50,[5],3.92 µM
same,TGI,[5],30.5 µM
same,GI50,[6],3.06 µM
same,TGI,[6],11.8 µM
same,GI50,[7],6.18 µM
same,TGI,[7],19.4 µM
same,GI50,[8],3.38 µM
same,TGI,[8],11.3 µM
same,GI50,[9],1.65 µM
same,TGI,[9],3.23 µM
same,GI50,[10],2.37 µM
same,TGI,[10],5.77 µM
same,GI50,[11],3.55 µM
same,TGI,[11],12.8 µM
same,GI50,[12],19.8 µM
same,TGI,[12],34.5 µM
same,GI50,[13],1.8 µM
same,TGI,[13],3.28 µM
same,GI50,[14],2.94 µM
same,TGI,[14],9.34 µM
same,GI50,[15],2.17 µM
same,TGI,[15],5.06 µM
same,GI50,[16],4.26 µM
same,TGI,[16],15.8 µM
same,GI50,[17],1.89 µM
same,TGI,[17],4.17 µM
same,GI50,[18],1.61 µM
same,TGI,[18],3.04 µM
same,GI50,[19],3.13 µM
same,TGI,[19],12 µM
same,GI50,[20],3.12 µM
same,TGI,[20],11.3 µM
same,GI50,[21],1.78 µM
same,TGI,[21],3.42 µM
same,GI50,[22],1.97 µM
same,TGI,[22],4.37 µM
same,GI50,[23],2.58 µM
same,TGI,[23],7.77 µM
same,GI50,[24],2.06 µM
same,TGI,[24],4.26 µM
same,GI50,[25],3.7 µM
same,TGI,[25],12.5 µM
same,GI50,[26],1.94 µM
same,TGI,[26],4.67 µM
same,GI50,[27],3.46 µM
same,TGI,[27],11.4 µM
same,GI50,[28],1.75 µM
same,TGI,[28],3.16 µM
same,GI50,[29],2.19 µM
same,TGI,[29],4.9 µM
